Measured values taken from patent publication US10578612B2, “Diagnostic assay” (priority 2010, dated 2020).
Where “and” joins values, the source holds several entries; their conditions need not be identical. Equal values may be shown once. Bridge positions count the residues as written; N and C are the ends. Square brackets hold non-standard residues; d marks the D form. Peptide text beside a SMILES is read from it. * marks the point of attachment. Octanoyl(6-Me) = CCC(C)CCCCC(=O)*; Dab = NCC[CH](N)C(=O)O

What was measured:
Assay type in all cases: cell-based, human
[1] = test system: IFN-γ production in blood (CMV antigen); assay: Effect of polymyxin B on IFN-γ production in blood in QuantiFERON-CMV tubes (Example 2)
Procedure: The effect of polymyxin B on IFN-γ production was assessed. Blood from 8 healthy donors was added to QuantiFERON-CMV blood collection tubes (1.0 mL per tube). One tube for each donor had 1.0 μg/mL of polymyxin B added, whilst the second tube served as a control. Blood was incubated at 37° C. for 20 hours before the tubes were centrifuged and the resultant concentration of IFN-γ determined by ELISA.

[2] = test system: non-specific IFN-γ production in blood containing lipopolysaccharides (LPS); assay: Effect of polymyxin B on non-specific IFN-γ production in blood containing LPS (Example 3)
Procedure: In this Example, blood from 8 healthy donors was collected in Li-Heparin tubes. Aliquots of 1.0 mL were prepared in 13/75 mm plain gel tubes. An endotoxin, lipopolysaccharides (LPS), was added to each tube of blood at a concentration of 1 μg/mL. Various concentrations of polymyxin B were added to each of the tubes. The blood was then incubated at 37° C. for 20 hours before the tubes were centrifuged and the IFN-γ concentration of the plasma determined by ELISA.

[3] = test system: non-specific IFN-γ production in blood from BD heparin tube (endotoxin contamination); assay: Polymyxin B in endotoxin-contaminated BD heparin tubes, IFN-γ assay (Example 4)
Procedure: Blood was taken from four healthy donors collected in Li-Heparin tubes. […] Tubes were mixed to resolublize the heparin and to ensure blood contact with tube plastic.
Aliquots of 1.0 mL from each heparin tube type were then transferred to 13/75 mm plain gel tubes. The blood was then incubated at 37° C. for 20 hours before the tubes were centrifuged and the IFN-γ concentration of the plasma determined by ELISA.

[4] = test system: immune response to lipopolysaccharide (LPS), IFN-γ in blood; assay: Effect of sushi peptide on immune response of blood to LPS (Example 6, FIGS. 1-2); conditions: sushi peptide 0-10 μg/ml, antigens CMV and tetanus toxoid, FIGS. 2a-2c
Procedure: Heparinized blood samples were collected into Li-Hep Vacuette (registered trade mark) tubes (Greiner Bio-one, Germany).
Aliquots of 1 ml of the blood samples were incubated with various concentrations of Lipopolysaccharide (Sigma, Australia) and a sushi peptide ([…]) [SEQ ID NO:1] (American Peptide Company, California) in nil blood collection tubes (QuantiFERON [registered trade mark]-TB Gold In-Tube, Cellestis Ltd, Australia) either as supplied or spiked with tetanus toxoid (1001 fu/ml), or in CMV tubes (QuantiFERON-CMV, Cellestis Ltd, Australia).
Stimulated blood samples were incubated for 16-24 hr at 37° C., after which the tubes were centrifuged and the plasma harvested. The amount of IFN-γ present in each plasma sample was then quantified using the QuantiFERON (registered trade mark)-TB Gold ELISA (Cellestis Limited, Australia) as per the manufacturer's instructions.
ELISA optical density values for IFN-γ standards run on each ELISA plate were used to construct a standard curve from which the amount of IFN-γ present in each of the test plasma samples was converted to IU/mL values.

[5] = test system: IFN-γ production in stimulated whole blood

CCC(C)CCCCC(=O)NC(CCN)C(=O)NC(C(=O)NC(CCN)C(=O)NC1CCNC(=O)C(C(C)O)NC(=O)C(CCN)NC(=O)C(CCN)NC(=O)C(CC(C)C)NC(=O)C(Cc2ccccc2)NC(=O)C(CCN)NC1=O)C(C)O (stereo not drawn) [polymyxin B, N-[4-amino-1-[[1-[[4-amino-1-oxo-1-[[6,9,18-tris(2-aminoethyl)-15-benzyl-3-(1-hydroxyethyl)-12-(2-methylpropyl)-2,5,8,11,14,17,20-heptaoxo-1,4,7,10,13,16,19-heptazacyclotricos-21-yl]amino]butan-2-yl]amino]-3-hydroxy-1-oxobutan-2-yl]amino]-1-oxobutan-2-yl]-6-methyloctanamide] ({Octanoyl(6-Me)}-[Dab]T[Dab][Dab][Dab]FL[Dab][Dab]T; lactam 4-C; configuration not given here)
effect on the production of IFN-γ ([1]; 1 μg/mL polymyxin B, CMV antigen): does not adversely affect the production of IFN-γ
IFN-γ concentration, CMV + PMB 1.0 μg/mL ([1]; QuantiFERON-CMV tube, 1.0 μg/mL polymyxin B, 37° C. 20 hours, ELISA, one line per subject): 8.35 IU/mL and 0.04 IU/mL (2×) and 0.08 IU/mL and 0.51 IU/mL and 1.53 IU/mL and 24.28 IU/mL and 0.05 IU/mL and 2.3 IU/mL and 0.55 IU/mL
IFN-γ concentration, 1 μg/mL LPS, polymyxin 0.1 ug/mL ([2]; blood + 1 μg/mL LPS, polymyxin B 0.1 ug/mL, 37° C. 20 hours, one line per subject): 0.67 IU/mL and 0.44 IU/mL and 9.28 IU/mL and 2.87 IU/mL and 0.32 IU/mL and 2.00 IU/mL and 0.79 IU/mL and 0.41 IU/mL
IFN-γ concentration, 1 μg/mL LPS, polymyxin 1 ug/mL ([2]; blood + 1 μg/mL LPS, polymyxin B 1 ug/mL, 37° C. 20 hours, one line per subject): 0.41 IU/mL and 0.22 IU/mL and 3.31 IU/mL and 2.57 IU/mL and 0.21 IU/mL and 1.17 IU/mL and 0.50 IU/mL and 0.14 IU/mL
IFN-γ concentration, 1 μg/mL LPS, polymyxin 10 ug/mL ([2]; blood + 1 μg/mL LPS, polymyxin B 10 ug/mL, 37° C. 20 hours, one line per subject): 0.25 IU/mL and 0.11 IU/mL (2×) and 1.96 IU/mL and 1.41 IU/mL and 0.36 IU/mL and 0.32 IU/mL and 0.12 IU/mL
IFN-γ concentration, 1 μg/mL LPS, polymyxin 100 ug/mL ([2]; blood + 1 μg/mL LPS, polymyxin B 100 ug/mL, 37° C. 20 hours, one line per subject): 0.02 IU/mL (3×) and 0.05 IU/mL (2×) and 0.04 IU/mL and 0.18 IU/mL and 0.06 IU/mL
effect on non-specific IFN-γ production ([2]; samples containing endotoxin (LPS 1 μg/mL)): caused a reduction in non-specific IFN-γ production
effect on non-specific IFN-γ production in BD heparin tubes ([3]; 100 ug/mL polymyxin B, BD heparin tubes known to contain endotoxin): significantly reduced
IFN-gamma, BD Heparin Tube + 100 μg/mL Polymyxin B ([3]; blood from BD heparin tube (endotoxin contaminated) with 100 μg/mL polymyxin B, 37° C. 20 hours, one line per subject): 0.51 IU/mL and 0.11 IU/mL (2×) and 0.24 IU/mL

HAEHKVKIGVEQKYGQFPQGTEVTYTCSGNYFLM (Sushi peptide)
effect on immune response to LPS [4]: inhibition of an immune response to lipopolysaccharide (LPS)

polyinosinic acid-polycytidylic acid [PolyI:C]
IFN-γ response to poly(I:C) alone [5]: relatively small
effect on IFN-γ production with antigen [5]: increases the IFN-γ production
